From publication PMC10803289, “Transport and inhibition mechanism of the human SGLT2–MAP17 glucose transporter” (Nature Structural & Molecular Biology, 2023)
“And” between values parts separate entries of the source, which are not always exact repeats. Equal entries are not always repeated.

Experiments:
hSGLT2 D201A [1] = target: T1, hSGLT2 D201A (Homo sapiens, UniProt P31639, D201A); experiment: SGLT2 inhibitor-binding assay (AS-MS), crude membrane, D201A mutant; set-up: expressed in transfected cells; host or cells: Expi293 cells, crude membrane fraction; details: 30 nM canagliflozin; D201A; replicates
T1 sequence (P31639 1-672 D201A): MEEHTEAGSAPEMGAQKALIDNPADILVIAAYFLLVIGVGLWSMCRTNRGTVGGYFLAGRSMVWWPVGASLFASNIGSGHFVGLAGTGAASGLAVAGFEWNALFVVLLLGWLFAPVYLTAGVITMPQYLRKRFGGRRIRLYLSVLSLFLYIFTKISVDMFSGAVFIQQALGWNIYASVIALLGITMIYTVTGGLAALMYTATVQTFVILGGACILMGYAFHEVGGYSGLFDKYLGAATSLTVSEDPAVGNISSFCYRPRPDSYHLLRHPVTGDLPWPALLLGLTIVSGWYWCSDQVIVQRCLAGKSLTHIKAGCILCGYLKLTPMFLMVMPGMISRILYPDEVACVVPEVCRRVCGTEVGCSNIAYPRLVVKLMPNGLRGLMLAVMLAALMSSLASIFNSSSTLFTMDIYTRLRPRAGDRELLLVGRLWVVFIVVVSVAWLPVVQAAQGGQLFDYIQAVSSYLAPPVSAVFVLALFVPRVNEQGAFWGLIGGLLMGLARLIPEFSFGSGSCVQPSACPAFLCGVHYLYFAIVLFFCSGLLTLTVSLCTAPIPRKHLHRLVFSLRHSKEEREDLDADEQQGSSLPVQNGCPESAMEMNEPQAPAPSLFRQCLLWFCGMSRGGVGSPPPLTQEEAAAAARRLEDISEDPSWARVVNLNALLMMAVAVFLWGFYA
T1 sequence (Q13113 1-114 partner): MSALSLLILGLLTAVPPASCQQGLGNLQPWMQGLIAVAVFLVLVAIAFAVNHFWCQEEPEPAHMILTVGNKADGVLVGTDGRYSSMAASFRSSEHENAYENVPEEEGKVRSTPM
Text: (§1) hSGLT2 complementary DNA and human MAP17 cDNA were synthesized and codon-optimized for expression in human cell lines. Both cDNAs were cloned into the pcDNA3.4 vector. The hSGLT2 sequence was fused with an N-terminal signal sequence from human trypsinogen 1, a His10 tag, and sfGFP, followed by a human rhinovirus 3C protease (HRV3C protease) recognition site. Point mutations were introduced into this construct using site-directed mutagenesis. These plasmids were utilized for all experimental procedures conducted in this study.
To examine the inhibition of binding to the crude membrane, mammalian Expi293 cells were co-transfected with the hMAP17 and hSGLT2 plasmids, as described. […] The extract solution from the filter plate was diluted with water containing candesartan as an internal standard, and the SGLT2 inhibitor concentration was quantified via LC–MS/MS.
Nonspecific binding was measured using the crude membrane of nontransfected Expi293 cells. Specific binding was calculated by subtracting nonspecific binding from the binding of hSGLT2-expressing cells. Specific binding was normalized to hSGLT2 protein expression levels, measured via FSEC. The equilibrium dissociation constant (Kd) and maximum number of binding sites (Bmax) were calculated via nonlinear regression in GraphPad Prism 8.4.3. […]

hSGLT2 D201A [2] = target: T1, hSGLT2 D201A; experiment: α-MG uptake in HEK293 cells, D201A mutant; type: cell-based; set-up: expressed in transfected cells
Text: as §1, with “study. […]” for “study.”
Cell lysates were deproteinized by adding acetonitrile containing candesartan as the internal standard. The α-MG concentration was quantified via liquid chromatography–tandem mass spectrometry (LC–MS/MS) using the internal standard method.
Cellular protein content was determined using a bicinchoninic acid protein assay kit (Thermo Fisher Scientific). The uptake of α-MG was expressed as the ratio of concentration in the cells (in pmol per mg protein) to concentration in the medium (in pmol μl^−1); this is known as the cell-to-medium ratio (in μl per mg protein).
In the inhibition study, the cell-to-medium ratio of cells transfected with the empty vector was used as the background. The specific α-MG uptake was calculated by subtracting this background from the total cell-to-medium ratio and normalized to the uptake achieved without the inhibitor. […]

Row | Structure (SMILES) | Canagliflozin binding (% of WT) (hSGLT2 D201A [1]) | uptake of α-MG (in words) (hSGLT2 D201A [2]; D201A mutant) | α-MG uptake (hSGLT2 D201A [2]; Fig. 3h, D201A)
1 | Cc1ccc([C@@H]2O[C@H](CO)[C@@H](O)[C@H](O)[C@H]2O)cc1Cc1ccc(-c2ccc(F)cc2)s1 [Canagliflozin] | 127.94 % of WT and 124.539 % of WT and 148.349 % of WT |  | 
2 | CO[C@H]1O[C@H](CO)[C@@H](O)[C@H](O)[C@H]1O [α-MG, α-methyl-D-glucopyranoside] |  | No clear uptake | 6.25 μL/mg-protein and 10.67 μL/mg-protein and 6.52 μL/mg-protein
